From patent publication US20190059375A1, “SYNERGISTIC FUNGICIDAL COMPOSITION FOR CONTROLLING PLANT DISEASES” (Sumitomo Chemical Company, Limited, priority 2016, published 2019)

How the values were obtained:
[1] = test system: Brown rust (Puccinia recondita); assay: Test Example 4: foliar spray on wheat, Brown rust lesion area; assay type: in vivo, Puccinia recondita on wheat (cultivar. Shirogane); conditions: single use, foliar spray one day before inoculation, lesion area after ten days
Method: Five (5) parts of the present compound 1, 35 parts of a mixture of white carbon and ammonium polyoxyethylene alkyl ether sulfate (the weight ratio of 1:1) and […] of water were mixed, and the mixture was then finely-ground by a wet grinding method to obtain a flowable comprising the present compound 1. Separately, the flowable comprising the present compound 2 was prepared according to the above-mentioned similar method except that the present compound 2 was used instead of the present compound 1.
Each of the flowable comprising the present compound 1 and the flowable comprising the present compound 2 was diluted with water and if necessary, the resultant dilute solutions were mixed each other such that each concentration of the respective compounds in the dilution solution was adjusted to the concentration indicated in Table 3, to prepare the dilution solutions, respectively.
A plastic pot was filled with soil, and thereto wheat (cultivar. Shirogane) was seeded, and the plants were grown in a greenhouse for ten days. The above-mentioned dilution solutions were sprayed to foliar parts so as to adhere adequately onto the surfaces of leaves of the above wheats. After spraying the dilute solution, the plants were air-dried, and one day after the application, an aqueous suspension of uredospores of Brown rust (Puccinia recondita) was inoculated by spraying thereto. After the inoculation, the plants were placed at 27° C. under humid condition for one day, and were then cultivated under lighting for ten days, and a lesion area was examined (hereinafter referred to as “lesion area of treated group”).
Whereas, wheats were cultivated similarly to the treated group except that no foliage application of the above-mentioned agent solution was done, and Brown rust were inoculated, and the lesion area thereof was examined (hereinafter referred to as “lesion area of the untreated group”).
From each of the lesion area of the treated group and the untreated group, respectively, the efficacy of the treated group was calculated by the following Equation 2. […]

[2] = test system: Septoria leaf blotch (Mycosphaerella graminicola); assay: Test Example 3: growth of Septoria leaf blotch in YBG medium, microtiter plate, absorbance at 550 nm; assay type: cell-based; conditions: single use, concentration in medium 0.005 ppm; 18° C., four days
Method: Each of the present compound 1 or the present compound 2 was dissolved into dimethyl sulfoxide such that each concentration of these compounds was adjusted to one hundred fifty times as much as the concentration indicated in the below-mentioned Table 2. The resultant agent solution was dispensed into each microtiter plate (with 96 wells) in 1 μl portion thereof per well. […] The plate was cultivated at 18° C. for four days, thereby allowing Septoria leaf blotch (Mycosphaerella graminicola) to undergo proliferation, and the absorbance at 550 nm of each well of the microtiter plate was then measured to examine a degree of growth of Septoria leaf blotch (hereinafter referred to as “treated group”).
Whereas, Septoria leaf blotch was proliferated similarly to the case of the treated group except that dimethyl sulfoxide was used instead of the agent solution, and the degree of the growth was examined (hereinafter referred to as “untreated group”). The efficacy was calculated from each of the obtained degree of growth of the treated group and the untreated group respectively by the following “Equation 1”. […]

Row | SMILES | Efficacy (%) ([1]; concentration in agent solution 0.001 ppm) | Efficacy (%) [2] | Efficacy (%) ([1]; concentration in agent solution 0.0001 ppm) | Efficacy (%) ([1]; concentration in agent solution 0.01 ppm)
1 | CC1CC(C)(C)c2c(F)ccc(NC(=O)c3cn(C)nc3C(F)F)c21 (stereo not shown) [Present compound 2] | 15% | – | – | –
2 | CNC(=O)C(OC)c1ccccc1COc1cc(C)ccc1C (stereo not shown) [Present compound 1] | – | 20% | 22% | 46%
